Drawing on ChEMBL document CHEMBL2021816, “Synthesis and acrosin inhibitory activity of methyl 5-substituted-1H-benzo[d]imidazol-2-yl carbamate derivatives” (Bioorg Med Chem Lett, 2012), this text covers IC50 for 25 compounds.

For the assay, the target named is Acrosin (Homo sapiens, UniProt P10323). Kind of assay: Inhibition of acrosin in human spermatozoa assessed as effect on amidase activity after 3 hrs incubation by spectrophotometry.
Acrosin, sequence (P10323 20-42 limits assumed): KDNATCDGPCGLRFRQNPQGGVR
Acrosin, sequence (P10323 43-343 limits assumed): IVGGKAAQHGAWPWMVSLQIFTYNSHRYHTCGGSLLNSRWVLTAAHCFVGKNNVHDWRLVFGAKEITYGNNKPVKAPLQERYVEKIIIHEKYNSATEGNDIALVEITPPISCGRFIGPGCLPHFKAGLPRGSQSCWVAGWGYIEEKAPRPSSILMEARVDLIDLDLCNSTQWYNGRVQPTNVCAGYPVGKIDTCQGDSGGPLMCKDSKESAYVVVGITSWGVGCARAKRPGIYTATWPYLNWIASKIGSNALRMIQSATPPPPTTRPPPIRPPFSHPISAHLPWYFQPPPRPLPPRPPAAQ

Consider `COC(=O)Nc1nc2ccc(S(=O)(=O)Nc3cc(C)ccc3C)cc2[nH]1`, for which the IC50 came to 8860 µM.
Regarding `COC(=O)Nc1nc2ccc(S(=O)(=O)NCc3ccccc3F)cc2[nH]1`, the IC50 turned out to be 310 µM.
For `COC(=O)Nc1nc2ccc(S(=O)(=O)NCc3ccc(F)cc3)cc2[nH]1` the value was 2400 µM; for `COC(=O)Nc1nc2ccc(S(=O)(=O)NCc3ccc(Br)cc3)cc2[nH]1`, 1640 µM; for `COC(=O)Nc1nc2ccc(S(=O)(=O)NCc3ccccc3Cl)cc2[nH]1`, 5750 µM.
As for `COC(=O)Nc1nc2ccc(S(=O)(=O)NCc3ccc(Cl)cc3)cc2[nH]1`, the IC50 was determined as 7520 µM.
Regarding `COC(=O)Nc1nc2ccc(S(=O)(=O)NCc3ccc(Cl)cc3Cl)cc2[nH]1`, the IC50 turned out to be 1270 µM.
On to `COC(=O)Nc1nc2ccc(S(=O)(=O)NCc3ccc(Cl)c(Cl)c3)cc2[nH]1`, for which the IC50 was 4020 µM.
For `COC(=O)Nc1nc2ccc(S(=O)(=O)NCc3ccc(OC)cc3)cc2[nH]1` the value was 3290 µM; for `COC(=O)Nc1nc2ccc(S(=O)(=O)NCc3cccc(C)c3)cc2[nH]1`, 5060 µM.
For `COC(=O)Nc1nc2ccc(S(=O)(=O)NCc3ccc(C)cc3)cc2[nH]1` the value was 3180 µM.
The same measure for `COC(=O)Nc1nc2ccc(S(=O)(=O)NCc3ccccc3)cc2[nH]1`: 1030 µM; for `COC(=O)Nc1nc2ccc(S(=O)(=O)NCc3ccc(C(F)(F)F)cc3)cc2[nH]1`: 10700 µM; for `COC(=O)Nc1nc2ccc(S(=O)(=O)NCc3ccc(F)cc3F)cc2[nH]1`: 1550 µM.
Take `COC(=O)Nc1nc2ccc(S(=O)(=O)NCc3ccc(F)c(F)c3)cc2[nH]1`: the IC50 was determined as 1590 µM.
The same measure for `COC(=O)Nc1nc2ccc(S(=O)(=O)NCc3cccc(F)c3)cc2[nH]1`: 1810 µM.
Turning to `COC(=O)Nc1nc2ccc(S(=O)(=O)NCc3ccccc3OC)cc2[nH]1`, the IC50 came out at 8420 µM.
On to `COC(=O)Nc1nc2ccc(S(=O)(=O)NCc3cccc(OC)c3)cc2[nH]1`, for which the IC50 came out at 7500 µM.
On to `COC(=O)Nc1nc2ccc(S(=O)(=O)NCc3ccc(OC)c(OC)c3)cc2[nH]1`, for which the IC50 was determined as 11500 µM.
For `COC(=O)Nc1nc2ccc(S(=O)(=O)NC(C)C)cc2[nH]1` the value was 470 µM; for `CCCCNS(=O)(=O)c1ccc2nc(NC(=O)OC)[nH]c2c1`, 1770 µM.
On to `CCCCCCNS(=O)(=O)c1ccc2nc(NC(=O)OC)[nH]c2c1`, for which the IC50 is 1800 µM.
The same measure for `COC(=O)Nc1nc2ccc(S(=O)(=O)N(CCC(C)C)CCC(C)C)cc2[nH]1`: 63 µM.
For `COC(=O)Nc1nc2ccc(S(=O)(=O)N(C)Cc3ccccc3)cc2[nH]1` the value was 1250 µM.
For `O=Cc1cc(-c2ccc(Cl)cc2Cl)on1` the value was 1700 µM.

One may read the IC50 as the midpoint of a concentration-inhibition curve.
